Experimental data: patent US10555960B2, “Use of an aminoglycoside for nonsense mutation suppression and the treatment of disease” (PTC Therapeutics, Inc., priority 2015, dated 2020)
Counter-ions that a name gives are not always drawn. Like-named read-outs stand apart in the source and are kept apart here.

Test system: premature stop codon
Test: Premature stop codon readthrough (nonsense suppression), full length protein production by enzyme-linked immunosorbent assay
Assay type: cell-based
Method: Table 1 also provides the median maximum fold increase of the full length protein production over DMSO-treated samples as also determined by enzyme-linked immunosorbent assay within the concentration range tested (up to 1 mM).

[1] = median, enzyme-linked immunosorbent assay, concentration range tested up to 1 mM
[2] = median, enzyme-linked immunosorbent assay, within concentration range tested (up to 1 mM)

| EC2X (median concentration that doubles the intensity of the nonsense suppression) [1] | Max Fold over DMSO (median maximum fold increase of full length protein production over DMSO-treated samples) [2] | Compound | EC2X (median concentration that doubles the intensity of the nonsense suppression) | Max Fold over DMSO (median maximum fold increase of full length protein production over DMSO-treated samples) |
| --- | --- | --- | --- | --- |
| 95 µM | 5.5 | CN[C@@H]1[C@@H](O)[C@@H](O[C@@H]2[C@@H](O)[C@H](O[C@H]3O[C@H]([C@@H](C)N)CC[C@H]3N)[C@@H](N)C[C@H]2N)OC[C@]1(C)O [Gentamicin C2 sulfate] |  |  |
| 566 µM | 4.1 | CN[C@@H]1[C@@H](O)[C@@H](O[C@@H]2[C@@H](O)[C@H](O[C@H]3O[C@H](CO)[C@@H](O)[C@H](O)[C@H]3N)[C@@H](N)C[C@H]2N)OC[C@H]1O [Gentamicin A sulfate] |  |  |

Second part, the compound before the results:

| Compound | EC2X (median concentration that doubles the intensity of the nonsense suppression) [1] | Max Fold over DMSO (median maximum fold increase of full length protein production over DMSO-treated samples) [2] | EC2X (median concentration that doubles the intensity of the nonsense suppression) | Max Fold over DMSO (median maximum fold increase of full length protein production over DMSO-treated samples) |
| --- | --- | --- | --- | --- |
| CN[C@@H]1[C@@H](O)[C@@H](O[C@@H]2[C@@H](O)[C@H](O[C@H]3O[C@H]([C@@H](C)NC)CC[C@H]3N)[C@@H](N)C[C@H]2N)OC[C@]1(C)O.O=S(=O)(O)O [Gentamicin C1 sulfate] | 100 µM | 3.7 |  |  |
| CN[C@@H]1[C@@H](O)[C@@H](O[C@@H]2[C@@H](O)[C@H](O[C@H]3O[C@H](CO)[C@@H](O)[C@H](O)[C@H]3N)[C@@H](N)C[C@H]2N)OC[C@]1(C)O [Compound 1 sulfate, (2R,3S,4R,5R,6S)-5-amino-6-(((1R,2S,3S,4R,6S)-4,6-diamino-3-(((2R,3R,4R,5R)-3,5-dihydroxy-5-methyl-4-(methylamino)tetrahydro-2H-pyran-2-yl)oxy)-2-hydroxycyclohexyl)oxy)-2-(hydroxymethyl)tetrahydro-2H-pyran-3,4-diol] | 19 µM | 47 |  |  |
| Gentamicin C1a sulfate |  |  | 135 µM | 2.6 |
| CN[C@@H]1[C@@H](O)[C@@H](O[C@@H]2[C@@H](O)[C@H](O[C@H]3O[C@H]([C@H](C)N)CC[C@H]3N)[C@@H](N)C[C@H]2N)OC[C@]1(C)O.O=S(=O)(O)O [Gentamicin C2a sulfate] | 260 µM | 3.1 |  |  |
